According to patent publication US20070141092A1, “BIGUANIDE COMPOSITION AND METHOD OF TREATMENT AND PREVENTION OF VIRAL INFECTIONS” (priority 2005, published 2007):

How the values were obtained:
Format in all cases: cell-based
Cytomegalovirus = assay: Viral Suspension Assay, Cytomegalovirus; conditions: both 30 ppm and 99 ppm
Method: (§1) The Viral Suspension Assay was used to evaluate the antiviral properties of Alexidine against Adenovirus Type-4, Adenovirus Type-8 and Adenovirus Type-19 and Cytomegalovirus when exposed in suspension for 1, 2, 5, and 10 minutes. The presence of virus (infectivity) was determined by monitoring the virus specific cytopathic effect (CPE) on an appropriate indicator cell line, rabbit kidney. Results are reported as Percent (%) Reduction in virus titer as compared to the corresponding virus control titer (Table 1). The titer of the virus controls were 7.5 log10 following the one minute exposure time; 7.0 log10 following the two minute exposure time; and 7.75 log10 following both the five and ten minute exposure times.

Adenovirus Type-8 = assay: Viral Suspension Assay, Adenovirus Type-8; conditions: both 30 ppm and 99 ppm
Method: as §1

[1] = test system: Herpes simplex virus type 1; assay: Viral Suspension Assay, HSV-1 (CPE on rabbit kidney indicator cells)
Method: as §1, with “Herpes simplex virus type 1” for “Adenovirus Type-4, Adenovirus Type-8 and Adenovirus Type-19 and Cytomegalovirus”

Adenovirus Type-4 = assay: Viral Suspension Assay, Adenovirus Type-4; conditions: both 30 ppm and 99 ppm
Method: as §1

For `CCCCC(CC)CNC(=N)NC(=N)NCCCCCCNC(=N)NC(=N)NCC(CC)CCCC` (centres unmarked) [Alexidine, 1,1′-hexamethylene-bis[5-(2-ethylhexyl)biguanide]], the “Effectiveness against Cytomegalovirus (in words)” value (Cytomegalovirus) was “somewhat effective”, the “Effectiveness against Adenovirus Type-8 (in words)” value (Adenovirus Type-8) was “somewhat effective” and the “Effectiveness against herpes simplex type-1 virus (in words)” value ([1]; both 30 ppm and 99 ppm) was “effective agents”. The “Overall activity against Herpes Simplex-1 (in words)” value ([1]; summary statement) was “potent antimicrobial agent” and the “Effectiveness against Adenovirus Type-4 (in words)” value (Adenovirus Type-4) was “somewhat effective”.
